Assay results reported in the supplement of paper PMC8671470.

What follows are compounds tested on NOMO-1 (assay: cell viability (% survival relative to DMSO control, bortezomib = 0%); higher = less cytotoxic). Conditions: 1000 nM; 72 h.
Outline: (§1)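 Reported values are percent survival from duplicate wells, averaged. Fifteen myeloid leukaemia cell lines were treated in 384-well plates with compounds at 1, 10, 100, 1000 or 10000 nM for 72 h at 37 °C in 5% CO2. Signals from CellTiter-Glo luminescence were scaled with vehicle as 100% and a 10 µM positive control as 0%.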

SMILES | cell viability [%]
NC(CCC(=O)NC(CSCc1ccc(Br)cc1)C(=O)NCC(=O)OC1CCCC1)C(=O)OC1CCCC1 (centres undefined) [S-para-Bromobenzylglutathione cyclopentyl diester] | 97.8
COc1cc(C2Oc3cc(C4Oc5cc(O)cc(O)c5C(=O)C4O)ccc3OC2CO)ccc1O (centres undefined) [Silibinin] | 101
Fc1ccc(CNc2ncnc3ccc(F)cc23)cc1 [Spautin 1] | 97.3
Cn1c2cc(S(C)=O)sc2c2cnn(Cc3cccc(N)c3)c(=O)c21 (centres undefined) [TEPP-46] | 99.8
CCCCCCCCCCCCCCOc1ccc(C(=O)O)o1 [TOFA] | 99
CN1CC(=O)N2[C@H](c3ccc4c(c3)OCO4)c3[nH]c4ccccc4c3C[C@@H]2C1=O [Tadalafil] | 105

Same assay, conditions: 10000 nM; 72 h

SMILES | cell viability [%]
CC(C)(F)C[C@H](N[C@@H](c1ccc(-c2ccc(S(C)(=O)=O)cc2)cc1)C(F)(F)F)C(=O)NC1(C#N)CC1 [Odanacatib] | 100
Nc1nc(O)c2c(CCc3ccc(C(=O)N[C@@H](CCC(=O)O)C(=O)O)cc3)c[nH]c2n1 [Pemetrexed] | 50.2
C=C1NC(=O)c2cc(CN(C)c3ccc(C(=O)N[C@@H](CCC(=O)O)C(=O)O)s3)ccc2N1 [Raltitrexed] | 31.4
CNC(=C[N+](=O)[O-])NCCSCc1ccc(CN(C)C)o1 [Ranitidine] | 101
C#CCN[C@@H]1CCc2ccccc21 [Rasagiline] | 102
NC(CCC(=O)NC(CSCc1ccc(Br)cc1)C(=O)NCC(=O)OC1CCCC1)C(=O)OC1CCCC1 (centres undefined) [S-para-Bromobenzylglutathione cyclopentyl diester] | 95.8
COc1cc(C2Oc3cc(C4Oc5cc(O)cc(O)c5C(=O)C4O)ccc3OC2CO)ccc1O (centres undefined) [Silibinin] | 99.7
Fc1ccc(CNc2ncnc3ccc(F)cc23)cc1 [Spautin 1] | 77.1
Cn1c2cc(S(C)=O)sc2c2cnn(Cc3cccc(N)c3)c(=O)c21 (centres undefined) [TEPP-46] | 93.3
CCCCCCCCCCCCCCOc1ccc(C(=O)O)o1 [TOFA] | 109
CN1CC(=O)N2[C@H](c3ccc4c(c3)OCO4)c3[nH]c4ccccc4c3C[C@@H]2C1=O [Tadalafil] | 108

Each compound was assayed on ML-2 in the same assay as above. Conditions: 1 nM; 72 h.
Outline: as §1

SMILES | cell viability [%]
CC(C)(F)C[C@H](N[C@@H](c1ccc(-c2ccc(S(C)(=O)=O)cc2)cc1)C(F)(F)F)C(=O)NC1(C#N)CC1 [Odanacatib] | 107
Nc1nc(O)c2c(CCc3ccc(C(=O)N[C@@H](CCC(=O)O)C(=O)O)cc3)c[nH]c2n1 [Pemetrexed] | 102
C=C1NC(=O)c2cc(CN(C)c3ccc(C(=O)N[C@@H](CCC(=O)O)C(=O)O)s3)ccc2N1 [Raltitrexed] | 93.9
CNC(=C[N+](=O)[O-])NCCSCc1ccc(CN(C)C)o1 [Ranitidine] | 97.4
C#CCN[C@@H]1CCc2ccccc21 [Rasagiline] | 89.9
NC(CCC(=O)NC(CSCc1ccc(Br)cc1)C(=O)NCC(=O)OC1CCCC1)C(=O)OC1CCCC1 (centres undefined) [S-para-Bromobenzylglutathione cyclopentyl diester] | 102
COc1cc(C2Oc3cc(C4Oc5cc(O)cc(O)c5C(=O)C4O)ccc3OC2CO)ccc1O (centres undefined) [Silibinin] | 93
Fc1ccc(CNc2ncnc3ccc(F)cc23)cc1 [Spautin 1] | 108
Cn1c2cc(S(C)=O)sc2c2cnn(Cc3cccc(N)c3)c(=O)c21 (centres undefined) [TEPP-46] | 116
CCCCCCCCCCCCCCOc1ccc(C(=O)O)o1 [TOFA] | 101
CN1CC(=O)N2[C@H](c3ccc4c(c3)OCO4)c3[nH]c4ccccc4c3C[C@@H]2C1=O [Tadalafil] | 95.6

Same assay, conditions: 10 nM; 72 h

SMILES | cell viability [%]
CC(C)(F)C[C@H](N[C@@H](c1ccc(-c2ccc(S(C)(=O)=O)cc2)cc1)C(F)(F)F)C(=O)NC1(C#N)CC1 [Odanacatib] | 101
Nc1nc(O)c2c(CCc3ccc(C(=O)N[C@@H](CCC(=O)O)C(=O)O)cc3)c[nH]c2n1 [Pemetrexed] | 101
C=C1NC(=O)c2cc(CN(C)c3ccc(C(=O)N[C@@H](CCC(=O)O)C(=O)O)s3)ccc2N1 [Raltitrexed] | 121
CNC(=C[N+](=O)[O-])NCCSCc1ccc(CN(C)C)o1 [Ranitidine] | 113
C#CCN[C@@H]1CCc2ccccc21 [Rasagiline] | 104
NC(CCC(=O)NC(CSCc1ccc(Br)cc1)C(=O)NCC(=O)OC1CCCC1)C(=O)OC1CCCC1 (centres undefined) [S-para-Bromobenzylglutathione cyclopentyl diester] | 87.1
COc1cc(C2Oc3cc(C4Oc5cc(O)cc(O)c5C(=O)C4O)ccc3OC2CO)ccc1O (centres undefined) [Silibinin] | 99.2
Fc1ccc(CNc2ncnc3ccc(F)cc23)cc1 [Spautin 1] | 84.7
Cn1c2cc(S(C)=O)sc2c2cnn(Cc3cccc(N)c3)c(=O)c21 (centres undefined) [TEPP-46] | 98.9
CCCCCCCCCCCCCCOc1ccc(C(=O)O)o1 [TOFA] | 92.8
CN1CC(=O)N2[C@H](c3ccc4c(c3)OCO4)c3[nH]c4ccccc4c3C[C@@H]2C1=O [Tadalafil] | 94.1

Same assay, conditions: 100 nM; 72 h

SMILES | cell viability [%]
CC(C)(F)C[C@H](N[C@@H](c1ccc(-c2ccc(S(C)(=O)=O)cc2)cc1)C(F)(F)F)C(=O)NC1(C#N)CC1 [Odanacatib] | 96.5
Nc1nc(O)c2c(CCc3ccc(C(=O)N[C@@H](CCC(=O)O)C(=O)O)cc3)c[nH]c2n1 [Pemetrexed] | 96.3
C=C1NC(=O)c2cc(CN(C)c3ccc(C(=O)N[C@@H](CCC(=O)O)C(=O)O)s3)ccc2N1 [Raltitrexed] | 61.6
CNC(=C[N+](=O)[O-])NCCSCc1ccc(CN(C)C)o1 [Ranitidine] | 101
C#CCN[C@@H]1CCc2ccccc21 [Rasagiline] | 105
NC(CCC(=O)NC(CSCc1ccc(Br)cc1)C(=O)NCC(=O)OC1CCCC1)C(=O)OC1CCCC1 (centres undefined) [S-para-Bromobenzylglutathione cyclopentyl diester] | 105
COc1cc(C2Oc3cc(C4Oc5cc(O)cc(O)c5C(=O)C4O)ccc3OC2CO)ccc1O (centres undefined) [Silibinin] | 87.2
Fc1ccc(CNc2ncnc3ccc(F)cc23)cc1 [Spautin 1] | 97
Cn1c2cc(S(C)=O)sc2c2cnn(Cc3cccc(N)c3)c(=O)c21 (centres undefined) [TEPP-46] | 102
CCCCCCCCCCCCCCOc1ccc(C(=O)O)o1 [TOFA] | 110
CN1CC(=O)N2[C@H](c3ccc4c(c3)OCO4)c3[nH]c4ccccc4c3C[C@@H]2C1=O [Tadalafil] | 92

Same assay, conditions: 1000 nM; 72 h

SMILES | cell viability [%]
CC(C)(F)C[C@H](N[C@@H](c1ccc(-c2ccc(S(C)(=O)=O)cc2)cc1)C(F)(F)F)C(=O)NC1(C#N)CC1 [Odanacatib] | 100
Nc1nc(O)c2c(CCc3ccc(C(=O)N[C@@H](CCC(=O)O)C(=O)O)cc3)c[nH]c2n1 [Pemetrexed] | 14
C=C1NC(=O)c2cc(CN(C)c3ccc(C(=O)N[C@@H](CCC(=O)O)C(=O)O)s3)ccc2N1 [Raltitrexed] | 5.21
CNC(=C[N+](=O)[O-])NCCSCc1ccc(CN(C)C)o1 [Ranitidine] | 100
C#CCN[C@@H]1CCc2ccccc21 [Rasagiline] | 87.2
NC(CCC(=O)NC(CSCc1ccc(Br)cc1)C(=O)NCC(=O)OC1CCCC1)C(=O)OC1CCCC1 (centres undefined) [S-para-Bromobenzylglutathione cyclopentyl diester] | 105
COc1cc(C2Oc3cc(C4Oc5cc(O)cc(O)c5C(=O)C4O)ccc3OC2CO)ccc1O (centres undefined) [Silibinin] | 95.8
Fc1ccc(CNc2ncnc3ccc(F)cc23)cc1 [Spautin 1] | 87.9
Cn1c2cc(S(C)=O)sc2c2cnn(Cc3cccc(N)c3)c(=O)c21 (centres undefined) [TEPP-46] | 108
CCCCCCCCCCCCCCOc1ccc(C(=O)O)o1 [TOFA] | 101
CN1CC(=O)N2[C@H](c3ccc4c(c3)OCO4)c3[nH]c4ccccc4c3C[C@@H]2C1=O [Tadalafil] | 101

Same assay, conditions: 10000 nM; 72 h

SMILES | cell viability [%]
CC(C)(F)C[C@H](N[C@@H](c1ccc(-c2ccc(S(C)(=O)=O)cc2)cc1)C(F)(F)F)C(=O)NC1(C#N)CC1 [Odanacatib] | 101
Nc1nc(O)c2c(CCc3ccc(C(=O)N[C@@H](CCC(=O)O)C(=O)O)cc3)c[nH]c2n1 [Pemetrexed] | 10.5
C=C1NC(=O)c2cc(CN(C)c3ccc(C(=O)N[C@@H](CCC(=O)O)C(=O)O)s3)ccc2N1 [Raltitrexed] | 6.92
